Laboratory results published in patent publication US10266544B2, “Aryl substituted aminomethyl spectinomycin analogs as antibacterial agents” (ST. JUDE CHILDREN'S RESEARCH HOSPITAL, INC., priority 2013, dated 2019).
≈ marks a conversion by molar mass, not a printed value. Counter-ions that a name gives are not always drawn. Like-named read-outs stand apart in the source and are kept apart here.

Columns and labels:
Format in all cases: cell-based
[1] = tested on: E. coli K12 ΔtolC; test: microbe, parasite or virus in culture; settings: Escherichia coli, read-out: MIC E.c. Δtolc
[2] = tested on: M. tuberculosis clinical isolates; test: microbe, parasite or virus in culture; settings: Mycobacterium tuberculosis
[3] = tested on: Listeria monocytogenes; test: MIC determination (Table 6)
[4] = tested on: Moraxella catarrhalis; test: MIC determination (Table 6)
[5] = tested on: Proteus mirabilis (ATCC 25933); test: MIC determination, microbroth dilution; settings: ATCC25933
[6] = tested on: Staphylococcus aureus (ATCC 29213); test: MIC determination, microbroth dilution; settings: ATCC29213; Staphylococcus aureus (ATCC 29213); read-out: MIC S.a.
[7] = tested on: Bacillus anthracis, Sterne 34F2; test: microbe, parasite or virus in culture; settings: STERNE34F2, read-out: MIC B.a.
[8] = tested on: Haemophilus influenza (ATCC 49247); test: microbe, parasite or virus in culture; settings: ATCC49247; Haemophilus influenza; 4 μg per disc; range of at least two experiments; read-out: Zone of inhibition H.i.
[9] = tested on: Streptococcus pyogenes (ATCC 700294); test: MIC determination, microbroth dilution
[10] = tested on: Pseudomonas aeruginosa (PA01); test: MIC determination, microbroth dilution
[11] = tested on: acinetobacter baumannii (ATCC 19606); test: MIC determination, microbroth dilution; settings: ATCC19606
[12] = tested on: Proteus vulgaris (ATCC 33420); test: MIC determination, microbroth dilution; settings: ATCC33420
[13] = tested on: Klebsiella pneumoniae (ATCC 33495); test: MIC determination, microbroth dilution; settings: ATCC33495
[14] = tested on: Legionella pneumophila (ATCC 33153); test: microbe, parasite or virus in culture; settings: ATCC33153, 72 h, read-out: Zone of inhibition L.p.
[15] = tested on: Bacillus subtilis (ATCC 23857); test: MIC determination, microbroth dilution
[16] = tested on: Streptococcus pneumoniae (R6); test: MIC determination, microbroth dilution; settings: read-out: MIC S. pn.
[17] = tested on: Bacillus anthracis; test: microbe, parasite or virus in culture; settings: read-out: MIC B.a.
[18] = tested on: Escherichia coli (ATCC 700926); test: MIC determination, microbroth dilution; settings: ATCC700926; Escherichia coli (ATCC 700926); read-out: MIC E.c.
[19] = tested on: Neisseria gonorrhoeae (ATCC 49226); test: Disc diffusion assay; settings: ATCC49226, 4 μg per disc, read-out: Zone of inhibition N.g.
[20] = tested on: MRSA, Staphylococcus aureus (NRS70); test: MIC determination, microbroth dilution; settings: read-out: MIC MRSA
[21] = tested on: Stenotrophomonas maltophilia (ATCC 13637); test: MIC determination, microbroth dilution
[22] = tested on: Neisseria meningitides (ATCC 13077); test: Disc diffusion assay; settings: ATCC13077, 4 μg per disc, read-out: Zone of inhibition N.m.
[23] = tested on: Burkholderia cepacia (ATCC 25416); test: MIC determination, microbroth dilution; settings: Burkholderia cepacia
[24] = ATCC700294, Streptococcus pyogenes (ATCC 700294), read-out: MIC S. py.
[25] = ATCC23857, Bacillus subtilis (ATCC 23857), read-out: MIC B.s.
[26] = ATCC13637, Stenotrophomonas maltophilia (ATCC 13637), read-out: MIC S.m.
[27] = ATCC25416, read-out: MIC B.c., Burkholderia cepacia (ATCC 25416)
[28] = ATCC25416, read-out: MIC B.c., Burkholderia cepacia, Table 6
[29] = Streptococcus pyogenes, ATCC700294, read-out: MIC S. py.

SMILES	MIC [1] [µg/mL]	MIC ([2]; H37RV, read-out: MIC H37Rv) [µg/mL]	MIC ([2]; read-out: MIC TN022) [µg/mL]	MIC [3] [µg/mL]	MIC [4] [µg/mL]	MIC [5] [µg/mL]	MIC [6] [µg/mL]	MIC [7] [µg/mL]	zone of inhibition at 4 µg/disc [8] [mm]	MIC [10] [µg/mL]	MIC [11] [µg/mL]	MIC [12] [µg/mL]	MIC [13] [µg/mL]	zone of inhibition at 4 µg/disc [14] [mm]	MIC [17] [µg/mL]	MIC [18] [µg/mL]	zone of inhibition at 4 µg/disc [19] [mm]	zone of inhibition at 4 µg/disc [22] [mm]	MIC [23, 27] [µg/mL]	MIC [23, 28] [µg/mL]	also measured
CN[C@@H]1[C@H](O)[C@H](NC)[C@H]2O[C@]3(O)[C@H](O[C@@H]2[C@H]1O)O[C@H](C)C[C@@]3(O)CNCCc1ccc[nH]1 [compound 62, 3′-(R)-3′-[((2-(1H-pyrrol-2-yl)ethyl)aminomethyl]dihydrospectinomycintetrahydrobromide]	12.5	50	25	25	12.5	200	25	25	0	> 200	> 200	50 to 100	100 to 200	12	25	50	0	0	> 200	> 200	MIC ([2]; read-out: MIC TN026): 100 µg/mL; MIC [9, 24]: 200 µg/mL; MIC [15, 25]: 6.3 µg/mL; MIC ([16]; Streptococcus pneumoniae (R6)): 100 µg/mL; MIC ([20]; Staphylococcus aureus): 12.5 to 25 µg/mL; MIC [21, 26]: 6.3 µg/mL
CN[C@@H]1[C@H](O)[C@H](NC)[C@H]2O[C@]3(O)[C@H](O[C@@H]2[C@H]1O)O[C@H](C)C[C@@]3(O)CNCCc1cccs1 [compound 61, 3′-(R)-3′-[((2-(thiophen-2-yl)ethyl)aminomethyl]dihydrospectinomycintrihydrobromide]	3.1 to 6.3	6.3	6.3	6.3	1.6	200	12.5	12.5 to 50	14	> 200	> 200	100 to 200	50	30	12.5 to 50	25	13	14	≥ 200	≥ 200	MIC ([2]; read-out: MIC TN026): 6.3 µg/mL; MIC [9, 24]: 12.5 µg/mL; MIC [15, 25]: 6.3 µg/mL; MIC ([16]; Streptococcus pneumoniae (R6)): 6.3 µg/mL; MIC ([20]; Staphylococcus aureus (NRS70)): 25 to 50 µg/mL; MIC [21, 26]: 12.5 µg/mL
CN[C@@H]1[C@H](O)[C@H](NC)[C@H]2O[C@]3(O)[C@H](O[C@@H]2[C@H]1O)O[C@H](C)C[C@@]3(O)CNCCc1ccc(C)c(C)c1 [compound 55, 3′-(R)-3′-[(3,4-dimethyl)phenethylaminomethyl]dihydrospectinomycin Trihydrochloride]	12.5 to 25	25	50	25	3.1	> 200	100	100	9	> 200	> 200	> 200	> 200	15	100	100 to 200	11	8	> 200	> 200	MIC ([2]; read-out: MIC TN026): 50 µg/mL; MIC [9, 29]: 12.5 to 25 µg/mL; MIC [15, 25]: 50 µg/mL; MIC ([16]; Streptococcus pneumoniae (R6)): 12.5 µg/mL; MIC ([20]; Staphylococcus aureus (NRS70)): > 200 µg/mL; MIC [21, 26]: 50 µg/mL
CN[C@@H]1[C@H](O)[C@H](NC)[C@H]2O[C@]3(O)[C@H](O[C@@H]2[C@H]1O)O[C@H](C)C[C@@]3(O)CNCC(C)c1ccccc1 (stereo partly drawn) [compound 65]	6.3 to 12.5 (≈ 13.1 to 26 µM)	50 (≈ 104 µM)	100 (≈ 208 µM)	12.5 (≈ 26 µM)	3.1 (≈ 6.44 µM)	> 200	25 (≈ 51.9 µM)	12.5 (≈ 26 µM)	10	> 200	> 200	> 200	> 200	22	12.5 (≈ 26 µM)	50 (≈ 104 µM)	12	13	≥ 200	≥ 200	MIC ([2]; read-out: MIC TN026): 100 µg/mL (≈ 208 µM); MIC [9, 29]: 12.5 µg/mL (≈ 26 µM); MIC ([15]; Bacillus subtilis, ATCC23857, read-out: MIC B.s.): 12.5 µg/mL (≈ 26 µM); MIC ([16]; Streptococcus pneumoniae): 12.5 µg/mL (≈ 26 µM); MIC ([20]; Staphylococcus aureus): 12.5 to 25 µg/mL (≈ 26 to 51.9 µM); MIC ([21]; Stenotrophomonas maltophilia, ATCC13637, read-out: MIC S.m.): 12.5 µg/mL (≈ 26 µM)
CN[C@@H]1[C@H](O)[C@H](NC)[C@H]2O[C@]3(O)[C@H](O[C@@H]2[C@H]1O)O[C@H](C)C[C@@]3(O)CNCCc1nccs1 [compound 64, 3′-(R)-3′-[((2-(thiazol-2-yl)ethyl)aminomethyl]dihydrospectinomycintetrahydrobromide]	25 to 50	1.6	1.6	12.5	3.1	> 200	50 to 100	50	11	> 200	> 200	> 200	100 to 200	33	50	50 to 100	8	11	> 200	> 200	MIC ([2]; read-out: MIC TN026): 1.6 µg/mL; MIC [9, 24]: 25 µg/mL; MIC [15, 25]: 12.5 to 25 µg/mL; MIC ([16]; Streptococcus pneumoniae (R6)): 12.5 µg/mL; MIC ([20]; Staphylococcus aureus (NRS70)): > 200 µg/mL; MIC [21, 26]: 25 to 50 µg/mL
CN[C@@H]1[C@H](O)[C@H](NC)[C@H]2O[C@]3(O)[C@H](O[C@@H]2[C@H]1O)O[C@H](C)C[C@@]3(O)CNCCN1CCOCC1 [compound 51, 3′-(R)-3′-[(2-morpholinoethyl)aminomethyl]dihydrospectinomycin tetrahydrochloride]	25 to 50	25	50	25	3.1	50 to 100	100 to 200	100 to 200	6	≥ 200	> 200	≥ 200	100 to 200	22	100 to 200	50	0	6	> 200	> 200	MIC ([2]; read-out: MIC TN026): 100 µg/mL; MIC [9, 24]: 100 µg/mL; MIC [15, 25]: 50 to 100 µg/mL; MIC ([16]; Streptococcus pneumoniae (R6)): 100 µg/mL; MIC ([20]; Staphylococcus aureus (NRS70)): > 200 µg/mL; MIC [21, 26]: 50 µg/mL
CN[C@@H]1[C@H](O)[C@H](NC)[C@H]2O[C@]3(O)[C@H](O[C@@H]2[C@H]1O)O[C@H](C)C[C@@]3(O)CNCc1ccccc1Cl [compound 56, 3′-(R)-3′-[(2-chloro)benzylaminomethyl]dihydrospectinomycin Trihydrobromide]	> 200	> 200	–	> 200	100	> 200	> 200	> 200	0	> 200	> 200	> 200	> 200	0	> 200	> 200	0	0	> 200	> 200	MIC [9, 24]: 50 µg/mL; MIC [15, 25]: > 200 µg/mL; MIC ([16]; Streptococcus pneumoniae (R6)): 100 µg/mL; MIC ([20]; Staphylococcus aureus (NRS70)): > 200 µg/mL; MIC [21, 26]: > 200 µg/mL
